The source of these data is patent publication US11566047B2, “Peptide or pharmaceutically acceptable salt thereof, or prodrug thereof” (TOKYO UNIVERSITY OF PHARMACY & LIFE SCIENCES, priority 2016, dated 2023).

Square brackets hold non-standard residues; d marks the D form. Peptide text beside a SMILES is read from it. * marks the point of attachment. Diglycolyl(TOTA) = NCCCOCCOCCOCCCNC(=O)COCC(=O)*; Propanoyl(3,3-Ph2) = O=C(CC(c1ccccc1)c1ccccc1)*; Chg = N[C@H](C(=O)O)C1CCCCC1; X1 = COCCOCCOCCOCCC(=O)*; R111 = not defined here; Ahx = NCCCCCC(=O)O

One assay concerns the target T1, myostatin (Homo sapiens, UniProt O14793).
T1 sequence (O14793 267-375): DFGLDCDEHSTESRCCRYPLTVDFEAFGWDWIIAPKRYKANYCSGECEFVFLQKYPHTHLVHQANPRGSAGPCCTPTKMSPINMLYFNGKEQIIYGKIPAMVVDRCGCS
Briefly: cell-based. The note with it: HEK293, read-out: luciferase activity (relative; myostatin without test sample = 100%). The procedure:
Human embryo kidney cell HEK293 cells were cultured in a 5% (v/v) CO2 incubator set to 37° C. using DMEM (NACALAI TESQUE, INC.) including a 10% (v/v) fetal bovine serum (FBS) added with a 1% (v/v) non-essential amino acid (Wako Pure Chemical Corporation).
(2) In Vitro Reporter Assay
HEK293 cells were seeded on a D-Lys-corted 96-well transparent plate (Thermo Fisher Scientific Inc.) in an amount of 2.0×10^4 cells (100 μL DMEM+10% (v/v) FBS) per well and were cultured for 24 hours.
The cells were cultured at 37° C. for 24 hours, and after the cell culture solution was replaced with serum-free DMEM, the cells were cultured for 8 hours. Incidentally, pGL4.48 [luc2P/SBE/Hygro] includes firefly luciferase reporter gene luc2P under Smad binding region (SBE) control, and when a signaling pathway by the myostatin is activated, intracellular Smad forms a complex, and the complex is bonded to SBE to promote transcription of luc2P.
The peptide as a test sample was suspended as a stock solution using DMSO to become 10 mM and stored at −30° C. Before 1 hour from addition to the culture medium, the peptide and a myostatin (Merck Millipore Corp.) were suspended with serum-free DMEM and left to stand still at room temperature (25° C.) for 20 minutes. Subsequently, a peptide with an arbitrary final concentration (0.3 to […]) and 8 ng/mL of myostatin were added to the culture medium, and then culturing was performed for 4 hours. After culturing for 4 hours, the culture solution was removed by an aspirator and the cells were washed with 1×PBS. Thereafter, Passive Lysis buffer (Promega Corporation) was added in an amount of 50 μL per well to dissolve the cells. The dissolving solution was subjected to centrifugal separation at 4500 rpm for 6 minutes under the condition of 4° C. After 20 μL of supernatant subjected to centrifugal separation was transferred to a white 96-well plate (Costar), 50 μL of Luciferase Assay Reagent (Promega Corporation) was then added, emission was detected by Luminoskan Ascent (Thermo Fisher Scientific Inc.), and a firefly luciferase activity was measured. Further, after 50 μL of Stop & Glo Buffer (Promega Corporation) was added, emission was detected by Luminoskan Ascent, and a Renilla luciferase activity was measured to be regarded as an internal control.
For the compound `CC[C@H](C)[C@H](NC(=O)[C@H](CCC(N)=O)NC(=O)[C@@H](NC(=O)[C@H](CCCCN)NC(=O)[C@@H](NC(=O)[C@@H](Cc1c[nH]c2ccccc12)NC(=O)[C@H](CCCNC(=N)N)NC(=O)[C@@H](NC(=O)[C@H](Cc1ccc(O)cc1)NC(=O)[C@H](Cc1c[nH]c2ccccc12)NC(=O)CCCCCNC(=O)COCC(=O)NCCCOCCOCCOCCCN)[C@@H](C)CC)[C@@H](C)CC)C1CCCCC1)C(=O)N[C@@H](Cc1c[nH]c2ccccc12)C(=O)N[C@@H](CO)C(=O)N[C@@H](CCCCN)C(=O)N[C@H](C(=O)N[C@@H](CCCNC(=N)N)C(=O)N[C@@H](CC(C)C)C(N)=O)C1CCCCC1` [PDM-89, R^115-WYIRwIK-Chg-QIWSK-Chg-RL-NH2] ({Diglycolyl(TOTA)-Ahx}-WYIR[dW]IK[Chg]QIWSK[Chg]RL-NH2), the remaining activity at 0.3 µM is not above 60%.
For the compound `CC[C@H](C)[C@H](NC(=O)[C@H](CCC(N)=O)NC(=O)[C@@H](NC(=O)[C@H](CCCCN)NC(=O)[C@@H](NC(=O)[C@@H](Cc1c[nH]c2ccccc12)NC(=O)[C@H](CCCNC(=N)N)NC(=O)[C@@H](NC(=O)[C@H](Cc1ccc(O)cc1)NC(=O)[C@H](Cc1c[nH]c2ccccc12)NC(=O)CNC(=O)CNC(=O)COCC(=O)NCCCOCCOCCOCCCN)[C@@H](C)CC)[C@@H](C)CC)C1CCCCC1)C(=O)N[C@@H](Cc1c[nH]c2ccccc12)C(=O)N[C@@H](CO)C(=O)N[C@@H](CCCCN)C(=O)N[C@H](C(=O)N[C@@H](CCCNC(=N)N)C(=O)N[C@@H](CC(C)C)C(N)=O)C1CCCCC1` [PDM-91, R^117-WYIRwIK-Chg-QIWSK-Chg-RL-NH2] ({Diglycolyl(TOTA)}-GGWYIR[dW]IK[Chg]QIWSK[Chg]RL-NH2), the remaining activity at 0.3 µM is not above 60%.
Same read-out and setting: the value for `CC[C@H](C)[C@H](NC(=O)[C@H](CCC(N)=O)NC(=O)[C@@H](NC(=O)[C@H](CCCCN)NC(=O)[C@@H](NC(=O)[C@@H](Cc1c[nH]c2ccccc12)NC(=O)[C@H](CCCNC(=N)N)NC(=O)[C@@H](NC(=O)[C@H](Cc1ccc(O)cc1)NC(=O)[C@H](Cc1c[nH]c2ccccc12)NC(=O)CNC(=O)COCC(=O)NCCCOCCOCCOCCCN)[C@@H](C)CC)[C@@H](C)CC)C1CCCCC1)C(=O)N[C@@H](Cc1c[nH]c2ccccc12)C(=O)N[C@@H](CO)C(=O)N[C@@H](CCCCN)C(=O)N[C@H](C(=O)N[C@@H](CCCNC(=N)N)C(=O)N[C@@H](CC(C)C)C(N)=O)C1CCCCC1` [PDM-90, R^116-WYIRwIK-Chg-QIWSK-Chg-RL-NH2] ({Diglycolyl(TOTA)}-GWYIR[dW]IK[Chg]QIWSK[Chg]RL-NH2) was not above 60%.
On the same count and under the same terms, the value for `CC[C@H](C)[C@H](NC(=O)[C@H](Cc1ccc(O)cc1)NC(=O)[C@H](Cc1c[nH]c2ccccc12)NC(=O)CCCCCNC(=O)CCOCCOCCOCCOC)C(=O)N[C@@H](CCC(=O)O)C(=O)N[C@@H](Cc1c[nH]c2ccccc12)C(=O)N[C@H](C(=O)N[C@@H](CCCCN)C(=O)N[C@H](C(=O)N[C@@H](CCC(N)=O)C(=O)N[C@H](C(=O)N[C@@H](Cc1c[nH]c2ccccc12)C(=O)N[C@@H](CO)C(=O)N[C@@H](CCCCN)C(=O)N[C@@H](CC(C)C)C(=O)N[C@@H](CCCNC(=N)N)C(=O)N[C@@H](CC(C)C)C(N)=O)[C@@H](C)CC)[C@@H](C)CC)[C@@H](C)CC` [PDM-55, R^111-WYIEWIKIQIWSKLRL-NH2] ({X1-Ahx}-WYIEWIKIQIWSKLRL-NH2) was not above 60%; that for `CC[C@H](C)[C@H](NC(=O)[C@H](CCC(N)=O)NC(=O)[C@@H](NC(=O)[C@H](CCCNC(=N)N)NC(=O)[C@@H](NC(=O)[C@@H](Cc1c[nH]c2ccccc12)NC(=O)[C@H](CCCNC(=N)N)NC(=O)[C@@H](NC(=O)[C@H](Cc1ccc(O)cc1)NC(=O)[C@@H](N)Cc1c[nH]c2ccccc12)[C@@H](C)CC)[C@@H](C)CC)C1CCCCC1)C(=O)N[C@@H](Cc1c[nH]c2ccccc12)C(=O)N[C@@H](CO)C(=O)N[C@@H](CCCNC(=N)N)C(=O)N[C@H](C(=O)N1CCC[C@H]1C(=O)N[C@@H](CC(C)C)C(N)=O)C1CCCCC1` [nPDM-80, WYIRwIR-Chg-QIWSR-Chg-PL-NH2] (H-WYIR[dW]IR[Chg]QIWSR[Chg]PL-NH2) was not above 60%.
On the same count and under the same terms, the value for `CC[C@H](C)[C@H](NC(=O)[C@H](CCC(N)=O)NC(=O)[C@@H](NC(=O)[C@H](CCCCN)NC(=O)[C@@H](NC(=O)[C@H](Cc1c[nH]c2ccccc12)NC(=O)[C@H](CCCCN)NC(=O)[C@@H](NC(=O)[C@H](Cc1ccc(O)cc1)NC(=O)[C@@H](N)Cc1c[nH]c2ccccc12)[C@@H](C)CC)[C@@H](C)CC)[C@@H](C)CC)C(=O)N[C@@H](Cc1c[nH]c2ccccc12)C(=O)N[C@@H](CO)C(=O)N[C@@H](CCCCN)C(=O)N[C@@H](CC(C)C)C(=O)N[C@@H](CCCNC(=N)N)C(=O)N[C@@H](CC(C)C)C(N)=O` [nPDM-55/E31K, WYIKWIKIQIWSKLRL-NH2] (H-WYIKWIKIQIWSKLRL-NH2) was not above 60%; that for `CC[C@H](C)[C@H](NC(=O)[C@H](Cc1ccc(O)cc1)NC(=O)[C@H](Cc1c[nH]c2ccccc12)NC(=O)CCCCCNC(=O)CCOCCOCCOCCOC)C(=O)N[C@@H](CCC(=O)O)C(=O)N[C@@H](CO)C(=O)N[C@H](C(=O)N[C@@H](CCCCN)C(=O)N[C@H](C(=O)N[C@@H](CCC(N)=O)C(=O)N[C@H](C(=O)N[C@@H](Cc1c[nH]c2ccccc12)C(=O)N[C@@H](CO)C(=O)N[C@@H](CCCCN)C(=O)N[C@@H](CC(C)C)C(=O)N[C@@H](CCCNC(=N)N)C(=O)N[C@@H](CC(C)C)C(N)=O)[C@@H](C)CC)[C@@H](C)CC)[C@@H](C)CC` [PDM-63, R^111-WYIESIKIQIWSKLRL-NH2] ({X1-Ahx}-WYIESIKIQIWSKLRL-NH2) was not above 60%; that for `CC[C@H](C)[C@H](NC(=O)[C@H](CCC(N)=O)NC(=O)[C@@H](NC(=O)[C@H](CCCNC(=N)N)NC(=O)[C@@H](NC(=O)[C@@H](Cc1c[nH]c2ccccc12)NC(=O)[C@H](CCCNC(=N)N)NC(=O)[C@@H](NC(=O)[C@H](Cc1ccc(O)cc1)NC(=O)[C@@H](N)Cc1c[nH]c2ccccc12)[C@@H](C)CC)[C@@H](C)CC)C1CCCCC1)C(=O)N[C@@H](Cc1c[nH]c2ccccc12)C(=O)N[C@H](CO)C(=O)N[C@@H](CCCNC(=N)N)C(=O)N[C@H](C(=O)N1CCC[C@H]1C(=O)N[C@@H](CC(C)C)C(N)=O)C1CCCCC1` [nPDM-82, WYIRwIR-Chg-QIWsR-Chg-PL-NH2] (H-WYIR[dW]IR[Chg]QIW[dS]R[Chg]PL-NH2) was not above 60%.
Regarding `CC[C@H](C)[C@H](NC(=O)[C@H](Cc1ccc(O)cc1)NC(=O)CC(c1ccccc1)c1ccccc1)C(=O)N[C@@H](CCCNC(=N)N)C(=O)N[C@@H](Cc1c[nH]c2ccccc12)C(=O)N[C@H](C(=O)N[C@@H](CCCNC(=N)N)C(=O)N[C@H](C(=O)N[C@@H](CCC(N)=O)C(=O)N[C@H](C(=O)N[C@@H](Cc1c[nH]c2ccccc12)C(=O)N[C@@H](CO)C(=O)N[C@@H](CCCNC(=N)N)C(=O)N[C@H](C(=O)N1CCC[C@H]1C(=O)N[C@@H](CC(C)C)C(N)=O)C1CCCCC1)[C@@H](C)CC)C1CCCCC1)[C@@H](C)CC` [nPDM-85, R^114-YIRWIR-Chg-QIWSR-Chg-PL-NH2] ({Propanoyl(3,3-Ph2)}-YIRWIR[Chg]QIWSR[Chg]PL-NH2), the remaining activity at 0.3 µM was not above 60%.

The same assay, now with this note: at a concentration of 1 μM or more; 8 ng/mL myostatin; HEK293.
On to “R^111-WYIEWIKIQIISKLRL-NH2 (R111-WYIEWIKIQIISKLRL-NH2; reading uncertain; also: printed as R^111-WYIEWIKIQIISKLRL-NH2) [PDM-27]”, for which the “myostatin inhibitory activity (concentration-dependent evaluation)” value is given as “significant myostatin inhibitory activity”.
